From patent US5547980A, “Bicyclic sulfones, processes for their production and pharmaceutical agents containing them” (Boehringer Mannheim GmbH, priority 1991, dated 1996)
Structures can show the parent of a compound that is named as a salt.

Test system: passively sensitized guinea-pig lung parenchymal strips
Assay: Inhibition of the antigen-induced constriction of passively sensitized guinea-pig lung parenchymal strips in vitro (organ bath)
Format: cell-based, guinea-pig (Pirbright-White)
Details: Cavia porcellus, 20 μg/ml, ovalbumin 0.1 μg/ml, 20 min/37° C. preincubation time (organ bath technique)
Description: Inhibition of the antigen-induced constriction of passively sensitized guinea-pig - lung parenchymal - strips in vitro (organ bath) For the in vitro examination of the compounds according to the invention, the inhibition of the antigen-induced constriction of passively sensitized guinea-pig lung parenchymal strips was measured as described in the following: Pirbright-White guinea-pigs were stunned by a blow on the neck and exsanguinated. The lungs were rinsed substantially free of blood in situ using Krebs buffer, pH 7.4. Subsequently the lung was excised, cut into strips (ca. 20×4×4 mm) and the strips were passively sensitized for one hour at room temperature with a 1:50 dilution of a homologous anti-ovalbumin antiserum and then washed once with Krebs buffer. The antiserum had previously been produced in guinea-pigs of the same strain according to […] (1) by repeated injection of ovalbumin (2×crystallized) with addition of complete Freund's adjuvant. The antiserum was stored undiluted at -18° C. until use. Subsequently the lung strips were suspended individually in 10 ml water baths on an isometric measuring recorder with an initial tension of 1.2 g. Afterwards the baths were filled with Krebs buffer and gassed continuously at 37° C. with O2 (95%) and CO2 (5%). The constrictions of the lung strips were recorded via an amplifier on a recorder. […] The inhibitory effects of the compounds according to the invention were expressed as percentage reduction of the constriction amplitudes of the "samples with test substance" in relation to the "untreated control constrictions". (1) […]. Johnstone Quantitative studies on anaphylaxis in guinea-pigs passively sensitized with homologous antibody. Inter. Arch. Allergy 41, 648-454 (1971) |% inhibition of the ovalbumin (0.1 μg/ml) induced |constriction of passively sensitized lung parenchymal strips |(guinea-pig) |20 min/37° C. preincubation time (organ bath technique)

Q: With `O=S1(=O)CC(N2CCCC2)C(N2CCCC2)c2ccc(Cl)cc21` (stereo not drawn) [3a), 7-chloro-3,4-bis-pyrrolidino-benzo[b]thian-1,1-dioxide] as the compound, how does the inhibition at 20 µg/mL read?
A: 25%

Q: How did the inhibition at 20 µg/mL turn out when `CCN(CC)CC1=Cc2ccc(Cl)cc2S1(=O)=O` [Example 1, 6-chloro-2-(N,N-diethylamino-methyl)benzo[b]thiophene-1,1 dioxide] was run?
A: 53%

Q: Which inhibition at 20 µg/mL does the source give for `CCCCNC1CS(=O)(=O)c2cc(Cl)ccc2C1NCCCC` (stereo not drawn) [Example 5l), 7-chloro-3,4-bis-n-butyl-amino-benzo[b]thian-1,1-dioxide-dihydrochloride] here?
A: 25%

Q: Which inhibition at 20 µg/mL does the source give for `CCN(CC)CC1=Cc2cc(Cl)c(Cl)cc2S1(=O)=O` [Example 6, 5,6-dichloro-2-(N,N-diethylamino-methyl)benzo[b]-thiophene-1,1-dioxide-hydrochloride] here?
A: 51%

Q: How did the inhibition at 20 µg/mL turn out when `CCN(CC)CC1=Cc2ccc(Cl)c(Cl)c2S1(=O)=O` [Example 7, 6,7-dichloro-2-(N,N-diethylamino-methyl)benzo[b]thiophene-1,1-dioxide-hydrochloride] was run?
A: 88%

Same assay, conditions: Cavia porcellus, 200 μg/ml (footnote *), ovalbumin 0.1 μg/ml, 20 min/37° C. preincubation time (organ bath technique)

Q: How did the inhibition at 200 µg/mL turn out when `Cn1c(=O)c2[nH]cnc2n(C)c1=O` [aminophylline, reference compound] was run?
A: 26%
